Test results from patent US12508261B2, “Methods of treating depression with vortioxetine” (Rundle Research LLC, priority 2017, dated 2025).
“And” between values parts separate entries of the source, which are not always exact repeats. Identical values can stand only once. Like-named read-outs stand apart in the source and are kept apart here.

Assay: Clinical pharmacokinetic study (RUN-001): vortioxetine 5 mg once daily for 29 days, then 28 days washout, obese vs normal-weight subjects
Type: in vivo, human
Settings: for Observed Clss: (5 mg/day)/AUC29; for Predicted CLss: (5 mg/day)/Css; for Observed accumulation ratio: AUC29/AUC1; for Predicted accumulation ratio: from elimination rate constant and 1 day dose interval
Experimental: To test if the obese patients would require different washout guidelines for preventing serotonin syndrome, 16 obese subjects (BMI≥35) and 13 normal subjects (BMI<25) completed a clinical trial where they were administered daily with low doses (5 mg/day) of vortioxetine for 29 days in a controlled study. All subjects were subsequently tracked for 28 days after discontinuing vortioxetine on day 29. Blood samples were collected and processed according to standard techniques.
The normal-weight control group consisted of healthy male and female volunteers aged 18 to 45 years. Their body mass index (BMI) values fell in the range of […]. […] Normal weight and obese subjects were matched as closely as possible for gender and age.
CYP2D6 genotype status was determined from whole blood samples drawn from each subject. Known alleles of CYP2D6 were tested for, as well as the presence of gene duplications (LabCorp, Inc.). CYP2D6 metabolizer status was categorized as ultra-rapid, extensive, intermediate, or poor. Ultra-rapid and poor metabolizers were not included in the study.
All subjects received vortioxetine, 5 mg once daily in the morning, for 29 days. The first dose was on Day 1, and the last dose was on Day 29. Blood sampling continued for another 28 days after the last dose, through Day 57.
Subjects spent 12 hours in the study unit on Day 1 (first dose of vortioxetine) and Day 29 (last dose of vortioxetine). On those two study days, venous blood samples (7 mL each) were drawn prior to the dose of vortioxetine, and at 1, 2, 4, 6, 8, 10, and 12 hours after dosage.
During the 29-day period of daily vortioxetine administration, subjects returned to the study unit in the morning of the following study days: 2, 3, 5, 8, 10, 12, 15, 17, 19, 22, 24, 26, and 29. At each visit, a single venous blood sample (7 mL) was drawn before the daily dose of vortioxetine. Subjects underwent a brief interview to assess subjective effects and possible adverse events. Subjects were then discharged until the next scheduled visit. They were provided with vortioxetine doses sufficient for daily morning administration until the next visit. No more than 2 consecutive doses of vortioxetine were taken on an outpatient basis.
On Day 29 (the final dose of vortioxetine), subjects spent 12 hours in the study unit as described above. They returned to the study unit for a single blood sample on the mornings of the following Days: 30, 31, 33, 36, 38, 40, 43, 45, 47, 50, 52, 54, and 57.
Plasma concentrations of vortioxetine were determined by liquid chromatography—mass spectrometry using a Shimadzu HPLC system coupled to a Sciex API-4000 mass spectrometer.
The internal standard (vortioxetine-d8) was added to calibration standards, quality control samples, and unknown study samples. All samples were extracted with methyl tert-butyl ether. The organic phase was separated and evaporated to dryness; the reconstituted extract was injected into the HPLC system. The HPLC column was a Unison UK-C18, 50 mm×2 mm, 3 micron particle size. The mobile phase consisted of an organic component (0.1% formic acid in acetonitrile) and an aqueous component (0.1% formic acid and 2 mM ammonium acetate in water). This was delivered in gradient mode at a net flow rate of 0.4 mL/min, with the organic fraction varying from 40% to 96%. m/z monitored were: 299.1/150.1 for vortioxetine, and 307.1/153 for vortioxetine-d8. The limit of quantitation was 0.1 ng/mL. […] All samples from a given study subject were extracted and analyzed at the same time using the same calibration standards.
Based on the clinical trials discussed above, several equations were derived which allow an individual to calculate the washout period (i.e., the time between stopping vortioxetine and initiating treatment with an MAOI). Data points to consisted of pre-dose plasma vortioxetine concentration (C) on each study day (t), both during (Days 1-29) and after (Days 30-57) the period of vortioxetine administration. […]

[1] = Normal-weight subjects, mean ± SD

Css (Normal-weight subjects, 5 mg/day, mean ± SD): 3.75 ± 1.72 ng/mL
Observed Clss [1]: 903 ± 450 mL/min
Predicted CLss [1]: 1172 ± 679 mL/min
Observed accumulation ratio [1]: 4.46 ± 1.10
Predicted accumulation ratio [1]: 3.72 ± 0.77
Css (Obese subjects, 5 mg/day, mean ± SD): 4.23 ± 1.68 ng/mL
Observed Clss (Obese subjects, mean ± SD): 809 ± 331 mL/min
Predicted CLss (Obese subjects, mean ± SD): 935 ± 362 mL/min
Observed accumulation ratio (Obese subjects, mean ± SD): 5.24 ± 1.86
Predicted accumulation ratio (Obese subjects, mean ± SD): 5.22 ± 1.75
half-life (both sexes, human, plasma, 5 mg/day, Normal-weight subjects, 5 mg/day, mean ± SD, read-out: Washout half-life (converted)): 53 h
half-life (both sexes, human, plasma, 5 mg/day, Obese subjects (BMI>=35), 5 mg/day, mean ± SD, read-out: Washout half-life (converted)): 78.2 h
half-life (both sexes, human, plasma, 5 mg/day, normal weight patients, read-out: elimination half-life (converted)): 53 h
concentration at 504 h (both sexes, human, plasma, 5 mg/day, normal patients (non-obese and/or normal CYP2D6 metabolizers), read-out: vortioxetine remaining in the blood plasma 21 days after stopping): 0.54 ng/mL
AUC(0-t) (both sexes, human, plasma, oral, 5 mg/day, Normal-weight subjects, 5 mg/day, mean ± SD, read-out: AUC0-24 Day 1): 24.8 ± 8.1 ng·h/mL
AUC(0-t) (both sexes, human, plasma, oral, 5 mg/day, Normal-weight subjects, 5 mg/day, mean ± SD, read-out: AUC0-24 Day 29): 112 ± 48.7 ng·h/mL
half-life (both sexes, human, plasma, oral, 5 mg/day, Obese subjects (BMI>=35), 5 mg/day, mean ± SD, read-out: Accumulation half-life (converted)): 79.7 h
AUC(0-t) (both sexes, human, plasma, oral, 5 mg/day, Obese subjects, 5 mg/day, mean ± SD, read-out: AUC0-24 Day 1): 22.6 ± 4.2 ng·h/mL
AUC(0-t) (both sexes, human, plasma, oral, 5 mg/day, Obese subjects, 5 mg/day, mean ± SD, read-out: AUC0-24 Day 29): 119 ± 46.3 ng·h/mL
half-life (both sexes, human, plasma, oral, 5 mg/day, normal subjects, read-out: plasma elimination half-life, range): 30 to 80 h
half-life (both sexes, human, plasma, oral, 5 mg/day, obese subjects, read-out: plasma elimination half-life, range): 54 to 171 h
half-life (human, plasma, 5 mg/day, one obese subject, CYP2D6 intermediate metabolizer (FIG. 8), read-out: accumulation half-life (converted)): 173 h
half-life (human, plasma, 5 mg/day, one obese subject, CYP2D6 intermediate metabolizer (FIG. 8), read-out: washout half-life (converted)): 168 h
half-life (human, plasma, im, 5 mg/day, individual subject, Normal cohort (BMI<25), IM, read-out: T1/2 (converted)): 71.8 h
half-life (human, plasma, im, 5 mg/day, individual subject, Obese cohort (BMI>=35), IM, read-out: T1/2 (converted)): 171 h
Css (individual subject, Normal cohort (BMI<25), IM, 5 mg/day): 7.8 ng/mL
Css (individual subject, Obese cohort (BMI>=35), IM, 5 mg/day): 9.27 ng/mL
washout period needed to attain about 0.14% of the initial plasma concentration (obese individuals, Equation 2): 31.5 days
time with measurable drug plasma concentrations after discontinuing vortioxetine (obese subjects, 5 mg/day): at least 28 days
SMILES: Cc1ccc(Sc2ccccc2N2CCNCC2)c(C)c1 [vortioxetine]
Css (individual subjects, Normal cohort (BMI<25), EM, 5 mg/day): 2.01 ng/mL and 3.31 ng/mL and 3.29 ng/mL and 3.51 ng/mL and 4.06 ng/mL and 3.21 ng/mL and 1.4 ng/mL and 1.54 ng/mL and 5.24 ng/mL and 5.42 ng/mL and 4.14 ng/mL and 3.13 ng/mL
Css (individual subjects, Obese cohort (BMI>=35), EM, 5 mg/day): 4.32 ng/mL and 4.58 ng/mL and 2.08 ng/mL and 4.57 ng/mL and 1.97 ng/mL and 3.44 ng/mL and 4.8 ng/mL and 4.75 ng/mL and 4.1 ng/mL and 3.22 ng/mL and 3.39 ng/mL and 3.38 ng/mL and 4.66 ng/mL and 4.85 ng/mL
